Measured values as given in ChEMBL document CHEMBL5370531, “Design, synthesis and pharmacological evaluation of 2,3-dihydrobenzofuran IRAK4 inhibitors for the treatment of diffuse large B-cell lymphoma” (Eur J Med Chem, 2023).
The source made the active and inactive calls. The calls are words filed in the database; no cut-off is given here.

Key:
OCI-Ly10 [1] = experiment: Synergistic antiproliferative activity against human OCILY10 cells harboring MYD88 L265P assessed as inhibition of cell growth at 100 nM incubated for 72 hrs in presence of BTK inhibitor, ibrutinib at 3.1 nM by CCK-8 assay (reference value: 21.36 %); format: functional
OCI-Ly10 [2] = experiment: Induction of apoptosis in human OCILY10 cells harboring MYD88 L265P assessed as early apoptotic cells at 0.2 uM incubated for 48 hrs in presence of BTK inhibitor, ibrutinib by Annexin V-FITC/PI staining based flow cytometry (reference value: 6.76 %); format: functional
[3] = target: T1, Interleukin-1 receptor-associated kinase 4 (Homo sapiens, UniProt Q9NWZ3); experiment: Inhibition of IRAK4 (unknown origin) by Z-LYTE enzymatic kinase assay
T1 sequence (Q9NWZ3 whole entry): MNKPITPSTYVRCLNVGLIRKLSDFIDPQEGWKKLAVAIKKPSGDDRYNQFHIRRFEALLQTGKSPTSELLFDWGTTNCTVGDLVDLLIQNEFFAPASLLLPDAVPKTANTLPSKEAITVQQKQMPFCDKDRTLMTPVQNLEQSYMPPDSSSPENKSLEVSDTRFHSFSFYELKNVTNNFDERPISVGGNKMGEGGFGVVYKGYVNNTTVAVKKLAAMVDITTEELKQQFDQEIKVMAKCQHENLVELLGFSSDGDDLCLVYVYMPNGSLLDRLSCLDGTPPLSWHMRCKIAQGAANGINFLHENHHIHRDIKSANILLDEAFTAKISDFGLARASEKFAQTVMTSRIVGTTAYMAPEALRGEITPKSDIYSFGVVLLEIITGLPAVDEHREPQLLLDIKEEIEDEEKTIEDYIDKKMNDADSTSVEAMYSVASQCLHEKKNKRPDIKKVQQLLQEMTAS

OCI-Ly10 [4] = experiment: Synergistic antiproliferative activity against human OCILY10 cells harboring MYD88 L265P assessed as inhibition of cell growth at 200 nM incubated for 72 hrs in presence of BTK inhibitor, ibrutinib at 1.6 nM by CCK-8 assay (reference value: 26.07 %); format: functional
OCI-Ly10 [5] = experiment: Induction of apoptosis in human OCILY10 cells assessed as late apoptotic cells at 1 uM incubated for 24 hrs by Annexin V-FITC/PI staining based flow cytometry (reference value: 3.71 %); format: functional
[6] = target: Macrophage colony-stimulating factor 1 receptor (Homo sapiens) (UniProt P07333); experiment: Inhibition of CSF1R (unknown origin) at 100 nM incubated for 1 hr in presence of ATP by ELISA analysis
Sequence of Macrophage colony-stimulating factor 1 receptor (Homo sapiens) (P07333 whole entry): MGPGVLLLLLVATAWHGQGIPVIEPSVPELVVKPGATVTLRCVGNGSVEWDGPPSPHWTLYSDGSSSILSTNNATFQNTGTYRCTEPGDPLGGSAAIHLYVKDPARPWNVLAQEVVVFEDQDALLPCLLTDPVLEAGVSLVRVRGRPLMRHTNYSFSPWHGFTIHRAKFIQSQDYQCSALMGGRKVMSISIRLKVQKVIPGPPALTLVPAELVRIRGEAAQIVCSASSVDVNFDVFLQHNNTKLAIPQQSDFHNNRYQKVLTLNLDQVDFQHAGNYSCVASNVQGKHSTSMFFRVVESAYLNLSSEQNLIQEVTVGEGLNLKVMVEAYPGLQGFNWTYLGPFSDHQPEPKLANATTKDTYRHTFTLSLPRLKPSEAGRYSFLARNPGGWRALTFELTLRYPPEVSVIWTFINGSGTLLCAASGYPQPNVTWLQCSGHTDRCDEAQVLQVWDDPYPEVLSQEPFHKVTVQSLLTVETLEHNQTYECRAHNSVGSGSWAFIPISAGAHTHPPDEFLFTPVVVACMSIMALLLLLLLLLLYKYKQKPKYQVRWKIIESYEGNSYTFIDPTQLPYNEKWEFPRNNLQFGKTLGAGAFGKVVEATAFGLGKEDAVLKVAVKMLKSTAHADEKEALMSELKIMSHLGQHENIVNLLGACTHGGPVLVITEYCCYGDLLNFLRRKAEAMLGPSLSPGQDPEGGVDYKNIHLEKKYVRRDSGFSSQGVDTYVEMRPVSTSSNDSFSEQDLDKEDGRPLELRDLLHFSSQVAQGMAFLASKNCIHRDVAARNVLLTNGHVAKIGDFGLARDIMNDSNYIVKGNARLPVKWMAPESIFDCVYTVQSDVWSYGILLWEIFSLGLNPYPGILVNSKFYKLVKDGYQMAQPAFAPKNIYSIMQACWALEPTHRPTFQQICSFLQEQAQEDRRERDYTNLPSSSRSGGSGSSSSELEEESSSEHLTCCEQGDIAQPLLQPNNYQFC

OCI-Ly10 [7] = experiment: Induction of apoptosis in human OCILY10 cells assessed as early apoptotic cells at 0.5 uM incubated for 24 hrs by Annexin V-FITC/PI staining based flow cytometry (reference value: 10 %); format: functional
OCI-Ly10 [8] = experiment: Induction of apoptosis in human OCILY10 cells harboring MYD88 L265P assessed as upregulation of caspase-3 cleavage at 0.2 uM in presence of BTK inhibitor, ibrutinib by immunoblotting analysis; format: functional, cell-based
OCI-Ly10 [9] = experiment: Induction of apoptosis in human OCILY10 cells harboring MYD88 L265P assessed as upregulation of PARP cleavage at 0.1 uM in presence of BTK inhibitor, ibrutinib by immunoblotting analysis; format: functional, cell-based
[10] = target: Vascular endothelial growth factor receptor 2 (Homo sapiens) (UniProt P35968); experiment: Inhibition of VEGFR2 (unknown origin) at 100 nM incubated for 1 hr in presence of ATP by ELISA analysis
Sequence of Vascular endothelial growth factor receptor 2 (Homo sapiens) (P35968 whole entry): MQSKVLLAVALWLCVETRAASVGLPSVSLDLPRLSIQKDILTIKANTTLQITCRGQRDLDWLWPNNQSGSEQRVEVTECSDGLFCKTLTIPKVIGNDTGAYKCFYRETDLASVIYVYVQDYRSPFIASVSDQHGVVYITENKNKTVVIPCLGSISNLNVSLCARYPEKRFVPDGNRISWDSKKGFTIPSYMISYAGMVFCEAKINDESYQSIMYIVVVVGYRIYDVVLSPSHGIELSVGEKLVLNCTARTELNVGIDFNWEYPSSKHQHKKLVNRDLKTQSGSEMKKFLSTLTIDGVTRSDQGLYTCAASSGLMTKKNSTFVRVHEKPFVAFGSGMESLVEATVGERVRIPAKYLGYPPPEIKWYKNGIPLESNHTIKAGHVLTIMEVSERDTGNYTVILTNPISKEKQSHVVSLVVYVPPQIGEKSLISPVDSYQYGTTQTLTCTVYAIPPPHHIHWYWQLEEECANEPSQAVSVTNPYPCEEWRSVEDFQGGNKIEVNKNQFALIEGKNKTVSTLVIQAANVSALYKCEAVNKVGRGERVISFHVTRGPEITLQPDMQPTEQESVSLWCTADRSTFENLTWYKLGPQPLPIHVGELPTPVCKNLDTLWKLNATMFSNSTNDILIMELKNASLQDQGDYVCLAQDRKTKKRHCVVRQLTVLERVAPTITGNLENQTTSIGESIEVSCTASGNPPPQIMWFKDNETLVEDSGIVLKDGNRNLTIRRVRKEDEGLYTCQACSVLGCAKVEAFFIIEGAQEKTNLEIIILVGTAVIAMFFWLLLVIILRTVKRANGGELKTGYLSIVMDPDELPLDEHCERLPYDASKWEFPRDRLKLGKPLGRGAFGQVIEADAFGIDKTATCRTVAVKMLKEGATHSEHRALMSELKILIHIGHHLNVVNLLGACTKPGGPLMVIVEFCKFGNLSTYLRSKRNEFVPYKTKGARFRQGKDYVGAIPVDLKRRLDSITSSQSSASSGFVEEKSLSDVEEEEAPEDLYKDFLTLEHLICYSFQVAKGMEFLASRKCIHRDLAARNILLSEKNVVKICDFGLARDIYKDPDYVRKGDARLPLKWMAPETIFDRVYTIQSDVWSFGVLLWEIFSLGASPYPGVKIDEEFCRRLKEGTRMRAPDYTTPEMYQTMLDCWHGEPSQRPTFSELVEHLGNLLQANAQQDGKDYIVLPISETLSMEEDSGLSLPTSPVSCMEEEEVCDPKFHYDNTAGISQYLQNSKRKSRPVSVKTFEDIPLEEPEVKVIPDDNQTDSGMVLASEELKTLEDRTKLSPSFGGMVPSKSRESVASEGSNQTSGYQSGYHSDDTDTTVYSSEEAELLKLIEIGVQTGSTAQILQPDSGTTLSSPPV

OCI-Ly10 [11] = experiment: Induction of apoptosis in human OCILY10 cells assessed as upregulation of caspase-3 cleavage at 0.1 to 1 uM incubated for 24 hrs by immunoblotting analysis; format: functional, cell-based; conditions: dose 0.1-1 µM
OCI-Ly10 [12] = experiment: Induction of apoptosis in human OCILY10 cells assessed as upregulation of PARP cleavage at 0.1 to 1 uM incubated for 48 hrs by immunoblotting analysis; format: functional, cell-based; conditions: dose 0.1-1 µM
[13] = target: Vascular endothelial growth factor receptor 1 (Homo sapiens) (UniProt P17948); experiment: Inhibition of VEGFR1 (unknown origin) at 100 nM incubated for 1 hr in presence of ATP by ELISA analysis
Sequence of Vascular endothelial growth factor receptor 1 (Homo sapiens) (P17948 whole entry): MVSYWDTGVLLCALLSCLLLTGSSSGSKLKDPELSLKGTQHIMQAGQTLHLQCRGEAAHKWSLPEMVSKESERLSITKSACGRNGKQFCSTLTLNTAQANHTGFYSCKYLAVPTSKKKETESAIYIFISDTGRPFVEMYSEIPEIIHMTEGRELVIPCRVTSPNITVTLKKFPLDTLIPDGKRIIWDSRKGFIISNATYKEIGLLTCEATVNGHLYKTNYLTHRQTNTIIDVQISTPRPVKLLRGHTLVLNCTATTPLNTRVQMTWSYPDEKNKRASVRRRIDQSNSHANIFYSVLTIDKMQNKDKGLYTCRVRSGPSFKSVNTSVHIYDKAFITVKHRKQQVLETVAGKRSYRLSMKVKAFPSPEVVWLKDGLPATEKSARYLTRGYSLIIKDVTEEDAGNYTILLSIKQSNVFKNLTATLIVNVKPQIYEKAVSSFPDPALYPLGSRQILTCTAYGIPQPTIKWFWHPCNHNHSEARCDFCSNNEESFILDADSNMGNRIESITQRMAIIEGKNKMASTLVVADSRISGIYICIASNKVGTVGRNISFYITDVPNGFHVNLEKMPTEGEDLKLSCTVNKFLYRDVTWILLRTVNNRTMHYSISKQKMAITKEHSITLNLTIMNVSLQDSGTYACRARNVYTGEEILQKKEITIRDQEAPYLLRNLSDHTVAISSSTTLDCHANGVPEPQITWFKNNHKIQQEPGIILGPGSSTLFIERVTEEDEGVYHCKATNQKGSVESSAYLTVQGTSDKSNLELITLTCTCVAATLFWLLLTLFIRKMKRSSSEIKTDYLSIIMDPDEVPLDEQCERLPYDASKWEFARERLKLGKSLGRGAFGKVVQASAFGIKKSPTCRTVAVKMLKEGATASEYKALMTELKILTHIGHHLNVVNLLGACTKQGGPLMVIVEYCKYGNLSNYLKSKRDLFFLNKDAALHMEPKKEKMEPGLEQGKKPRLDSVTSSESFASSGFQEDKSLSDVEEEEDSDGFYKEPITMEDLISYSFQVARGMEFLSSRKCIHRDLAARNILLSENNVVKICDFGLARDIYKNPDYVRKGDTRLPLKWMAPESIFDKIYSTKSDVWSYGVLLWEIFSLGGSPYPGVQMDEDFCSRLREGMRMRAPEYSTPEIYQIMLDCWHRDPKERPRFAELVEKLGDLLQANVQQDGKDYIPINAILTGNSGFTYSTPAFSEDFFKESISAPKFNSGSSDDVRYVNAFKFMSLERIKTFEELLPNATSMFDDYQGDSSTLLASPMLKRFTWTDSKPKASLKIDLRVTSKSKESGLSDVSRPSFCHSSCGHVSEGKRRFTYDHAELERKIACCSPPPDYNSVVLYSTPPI

OCI-Ly10 [14] = experiment: Induction of apoptosis in human OCILY10 cells assessed as late apoptotic cells at 0.5 uM incubated for 48 hrs by Annexin V-FITC/PI staining based flow cytometry (reference value: 3.54 %); format: functional
OCI-Ly10 [15] = experiment: Synergistic antiproliferative activity against human OCILY10 cells harboring MYD88 L265P assessed as inhibition of cell growth at 800 nM incubated for 72 hrs in presence of BTK inhibitor, ibrutinib at 6.2 nM by CCK-8 assay (reference value: 54.76 %); format: functional
OCI-Ly10 [16] = experiment: Synergistic antiproliferative activity against human OCILY10 cells harboring MYD88 L265P assessed as inhibition of cell growth at 400 nM incubated for 72 hrs in presence of BTK inhibitor, ibrutinib at 6.2 nM by CCK-8 assay (reference value: 34.46 %); format: functional
[17] = target: Vascular endothelial growth factor receptor 3 (Homo sapiens) (UniProt P35916); experiment: Inhibition of VEGFR3 (unknown origin) at 100 nM incubated for 1 hr in presence of ATP by ELISA analysis
OCI-Ly10 [18] = experiment: Synergistic antiproliferative activity against human OCILY10 cells harboring MYD88 L265P assessed as inhibition of cell growth at 800 nM incubated for 72 hrs in presence of BTK inhibitor, ibrutinib at 1.6 nM by CCK-8 assay (reference value: 54.76 %); format: functional
OCI-Ly10 [19] = experiment: Synergistic antiproliferative activity against human OCILY10 cells harboring MYD88 L265P assessed as inhibition of cell growth at 100 nM incubated for 72 hrs in presence of BTK inhibitor, ibrutinib at 25 nM by CCK-8 assay (reference value: 21.36 %); format: functional
OCI-Ly10 [20] = experiment: Induction of apoptosis in human OCILY10 cells at 1 uM incubated for 48 hrs by Annexin V-FITC/PI staining based flow cytometry; format: functional
[21] = target: Focal adhesion kinase 1 (Homo sapiens) (UniProt Q05397); experiment: Inhibition of FAK (unknown origin) at 100 nM incubated for 1 hr in presence of ATP by ELISA analysis
Sequence of Focal adhesion kinase 1 (Homo sapiens) (Q05397 2-1052 limits assumed): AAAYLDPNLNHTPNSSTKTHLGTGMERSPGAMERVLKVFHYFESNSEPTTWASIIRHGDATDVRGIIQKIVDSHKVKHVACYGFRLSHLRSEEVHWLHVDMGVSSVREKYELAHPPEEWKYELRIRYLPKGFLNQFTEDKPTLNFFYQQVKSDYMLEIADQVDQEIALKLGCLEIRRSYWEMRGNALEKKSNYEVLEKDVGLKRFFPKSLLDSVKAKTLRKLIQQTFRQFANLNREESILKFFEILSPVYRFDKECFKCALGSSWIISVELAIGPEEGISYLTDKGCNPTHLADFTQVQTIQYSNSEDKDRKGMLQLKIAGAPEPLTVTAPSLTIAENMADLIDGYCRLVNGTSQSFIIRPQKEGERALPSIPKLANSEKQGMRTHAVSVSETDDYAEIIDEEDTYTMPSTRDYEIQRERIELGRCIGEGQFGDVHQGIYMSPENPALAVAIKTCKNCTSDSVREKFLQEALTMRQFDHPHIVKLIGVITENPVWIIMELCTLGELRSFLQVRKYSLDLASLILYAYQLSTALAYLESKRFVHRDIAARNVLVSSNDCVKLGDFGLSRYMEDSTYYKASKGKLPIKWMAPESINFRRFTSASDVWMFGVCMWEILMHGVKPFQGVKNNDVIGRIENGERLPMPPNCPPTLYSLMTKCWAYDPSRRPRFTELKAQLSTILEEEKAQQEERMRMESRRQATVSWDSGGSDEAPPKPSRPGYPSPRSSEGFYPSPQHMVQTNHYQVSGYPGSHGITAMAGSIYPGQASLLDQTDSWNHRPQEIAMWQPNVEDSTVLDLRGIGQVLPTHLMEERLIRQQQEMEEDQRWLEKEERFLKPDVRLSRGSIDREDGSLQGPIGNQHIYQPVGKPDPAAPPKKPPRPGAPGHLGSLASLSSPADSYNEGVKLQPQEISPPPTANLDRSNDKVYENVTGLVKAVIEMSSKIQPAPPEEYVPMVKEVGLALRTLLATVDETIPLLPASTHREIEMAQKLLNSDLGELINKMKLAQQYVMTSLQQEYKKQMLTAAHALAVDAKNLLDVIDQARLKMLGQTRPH

[22] = target: Interleukin-1 receptor-associated kinase 4 (Homo sapiens) (UniProt Q9NWZ3); experiment: Inhibition of IRAK4 in human OCILY10 cells assessed as downregulation of IRAK4 phosphorylation level by immunoblotting analysis; format: cell-based
[23] = Cytotoxicity against human GM00637 cells assessed as inhibition of cell proliferation incubated for 72 hrs by CCK-8 assay; format: toxicity, cell-based
OCI-Ly10 [24] = experiment: Synergistic antiproliferative activity against human OCILY10 cells harboring MYD88 L265P assessed as inhibition of cell growth at 800 nM incubated for 72 hrs in presence of BTK inhibitor, ibrutinib at 3.1 nM by CCK-8 assay (reference value: 54.76 %); format: functional
OCI-Ly10 [25] = experiment: Induction of apoptosis in human OCILY10 cells assessed as early apoptotic cells at 0.2 uM incubated for 48 hrs by Annexin V-FITC/PI staining based flow cytometry (reference value: 5.4 %); format: functional

Compound: Cn1cc(-c2cc3c(cc2NC(=O)c2coc(-c4ccnc(N)c4)n2)CC(C)(C)O3)cn1
- inhibition at 0.1 µM (OCI-Ly10 [1]): 21.8%
- Activity (OCI-Ly10 [2]): 19.6%
- IC50 [3]: 0.0087 µM
- inhibition at 0.2 µM (OCI-Ly10 [4]): 26.9%
- Activity (OCI-Ly10 [5]): 33.7%
- inhibition [6]: inactive
- Activity (OCI-Ly10 [7]): 22.8%
- Activity (OCI-Ly10 [8]): Active
- Activity (OCI-Ly10 [9]): Active
- inhibition [10]: inactive
- Activity (OCI-Ly10 [11]): Active
- Activity (OCI-Ly10 [12]): Active
- inhibition [13]: inactive
- Activity (OCI-Ly10 [14]): 26.8%
- inhibition at 0.8 µM (OCI-Ly10 [15]): 83.3%
- inhibition at 0.4 µM (OCI-Ly10 [16]): 67.2%
- inhibition [17]: inactive
- inhibition at 0.8 µM (OCI-Ly10 [18]): 58.1%
- inhibition at 0.1 µM (OCI-Ly10 [19]): 72.2%
- Activity (OCI-Ly10 [20]): 92.3%
- inhibition [21]: inactive
- inhibition [22]: Dose-Dependent Effect
- IC50 at 72 h [23]: 1.52 µM
- inhibition at 0.8 µM (OCI-Ly10 [24]): 64.6%
- Activity (OCI-Ly10 [25]): 21.2%
